According to patent US20250262226A1, “COMBINATIONS OF VITAMIN D3, NIACINAMIDE AND LIPOIC ACID FOR USE IN THE MAINTENANCE OF HEALTHY BLOOD GLUCOSE LEVELS” (priority 2022, published 2025):

Test system: L6 muscle cells
Test: Insulin-stimulated glucose uptake (2-NBDG) in L6 muscle cells
Assay type: cell-based
Conditions: for glucose uptake relative to control cells: insulin stimulated, FIG. 5, V 500 IU, N 15 mg/ml, LA 0.5 mM; for increase in glucose uptake after insulin pulse over control cells: 100 nM insulin, FIG. 4
Method: The effect of each of vitamin D3, niacinamide and lipoic acid separately, and the fixed dose combination of vitamin D3, niacinamide and lipoic acid composition provided herein, were evaluated for the ability of each to have an effect on glucose uptake in an in vitro model. A goal was to improve insulin's ability to increase the uptake of glucose by L6 muscle cells.
Vitamin D3 was utilized to increase GLUT4 levels since this vitamin has been shown before to increase GLUT4 levels in muscle, and niacinamide was used to increase cellular NAD levels (El-Fakhri et al., Horm Res Paediact 81:363-378 (2014); Manna et al., J Biol Chem 287 (50): 42324-42332 (2012); Garten, Endocrinologist, Issue 135 (2020); and Fan et al., J Diabetes Investig. 11 (6): 1403-1419 (2020)). Glucose uptake studies using L6 cells were performed. L6 cells (ATCC CLR-1458; Rockville, MD) were maintained in Dulbecco's modified Eagle's medium (DMEM) supplemented with 10% Fetal Bovine Serum (FBS) and 100 μg/mL penicillin and streptomycin, at 37° C. in an atmosphere of 5% CO2. 2-(N-[7-nitrobenz-2-oxa-1, 3-diazol-4-yl]amino)-2-deoxyglucose (2-NBDG) (Molecular Probes-Invitrogen, CA, USA) was used to assess glucose uptake in the L6 cells. The cells were kept in glucose free medium for half an hour before insulin stimulation. The cells were then stimulated with 100 nM insulin for 10 and 20 min and incubated with 10 μM of 2-NBDG for 15 min. The reaction was stopped by washing with cold PBS three times and the cells were lysed using 0.1% Triton X. The lysate was then used to read florescence at […]. The data is reported in FIG. 4 as percent of control cells (no treatment, incubation with media).
Experiment conducted n=5. Student's t-tests were performed to compare between the present glucose uptake shown by control, vitamin D, niacinamide, and their combination at different time points.
Because the TCA cycle and glucose metabolism in the mitochondria generate oxidative stress, lipoic acid, an antioxidant (Golbidi et al., Front Pharmacol, Vol. 2, Article 69 (2011), 15 pages) which is known to enter the mitochondria, was tested to determine if it could further enhance glucose uptake. The following combinations were tested for improvements in muscle cell glucose uptake stimulated by insulin: Vitamin D3 plus Niacinamide plus or minus Lipoic acid alone.

Compound | glucose uptake relative to control cells | increase in glucose uptake after insulin pulse over control cells (10 minutes) | increase in glucose uptake after insulin pulse over control cells (20 minutes)
O=C(O)CCCCC1CCSS1 (racemic) [Lipoic acid, DL-alpha-lipoic acid] | did not increase glucose uptake |  | 
Vitamin E | had no effect |  | 
NC(=O)c1cccnc1 [niacinamide] |  | about 3 fold | only little
C=C1CC[C@H](O)C/C1=C/C=C1\CCC[C@]2(C)[C@@H]([C@H](C)CCCC(C)C)CC[C@@H]12 [vitamin D3, cholecalciferol] |  | about 6 fold | less so
